Reference: article PMC6753678, “Fueling Open Innovation for Malaria Transmission-Blocking Drugs: Hundreds of Molecules Targeting Early Parasite Mosquito Stages” (Frontiers in Microbiology, 2019)
Read-outs that look alike come from different tables or passages of the source.

Key:
[1] = system: P. berghei ookinete development; conditions: for % inhibition, Replicate A / % inhibition, Replicate B: primary screen at 1 μM
HepG2 cells = experiment: HepG2 cytotoxicity assay; conditions: for IC50: read-out: HepG2 cytotoxicity assay IC50, dose response confirmation; for Pb ODA (this manuscript) HepG2 cytoxicity: HepG2 cytotoxicity listed with the Pb ODA data set (this manuscript)
How it was run: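 HepG2 cells, 2,500 per well in MEM with 10% FBS and 1% NEAA, exposed to compounds for 48 h at 37°C, 5% CO2. Viability read by fluorescence; percent inhibition relative to 50 μM doxorubicin and DMSO controls.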

[2] = system: 3D7-strain P. falciparum asexual parasites; experiment: P. falciparum asexual growth inhibition assay (Pf GIA); assay type: cell-based, Plasmodium falciparum; conditions: dose response confirmation; read-out: Pf asexual growth inhibition assays IC50
How it was run: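 Parasites at 0.25% parasitemia, 2% hematocrit in Albumax-supplemented RPMI were exposed to compounds in dose response for 72 h at 37°C under 5% CO2/5% O2. Viability was read as LDH activity (NBT/diaphorase, A650 after freeze-thaw). Percent inhibition was calculated against chloroquine and DMSO controls, mean of three biological replicates.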

[3] = read-out: Pb ODA IC50, this manuscript
[4] = read-out: Pb Ookinete development assay IC50, dose response confirmation
[5] = HepG2 values of the three screens unified
[6] = read-out: Pb ODA (this manuscript) IC50, P. berghei ookinete development assay, this manuscript
[7] = unified HepG2 value across the three screens

SMILES	Is compound selective in assay? Pb ODA active? ([1]; 1: YES, 0: NO)	% inhibition, Replicate A [1] [%]	% inhibition, Replicate B [1] [%]	IC50 [1, 3] [nM]	IC50 [1, 4] [nM]	HepG2 cytoxicity (Pb ODA, this manuscript) (HepG2 cells) [µM]	Unified cytotox (HepG2 cells; [5]) [µM]	IC50 (HepG2 cells) [nM]	IC50 [2] [nM]	Is compound selective in assay? Pb ODA active? [1]	IC50 [1, 6] [nM]	Pb ODA (this manuscript) HepG2 cytoxicity (HepG2 cells) [µM]	Unified cytotox (HepG2 cells; [7]) [µM]	% inhibition, Replicate A ([1]; 1 µM) [%]	% inhibition, Replicate B ([1]; 1 µM) [%]
Cc1[nH]c(C)c(-c2ccc(Oc3ccc(F)cc3)cc2)c(=O)c1Br [TCMDC-137402]	1 (1: YES)	94.48	95.56	56.7	57	3.80	3.80	3800	30	–	–	–	–	–	–
Cc1nc(C)c(-c2ccc(Sc3ccc(Cl)cc3)cc2)c(O)c1Br [TCMDC-137404]	–	89.90	109.40	–	77	–	–	100000	53	1 (key: 1: YES; 0: NO)	80	100.00	–	–	–
Cc1[nH]c(C)c(-c2ccc(Oc3ccc(C(F)(F)F)cc3)cc2)c(=O)c1Br [TCMDC-137406]	1 (1: YES)	103.93	109.45	130	127	5.75	5.75	5750	133	–	–	–	–	–	–
Cc1[nH]c(C)c(-c2ccc(C(=O)c3ccc(Cl)cc3)cc2)c(=O)c1Br [TCMDC-137407]	–	83.43	91.19	–	78	–	–	44700	56	1 (key: 1: YES; 0: NO)	80	44.67	–	–	–
Cc1[nH]c(C)c(-c2ccc(Oc3ccccc3)cc2)c(=O)c1Br [TCMDC-137410]	1 (1: YES)	89.72	108.12	33.8	34	34.67	34.67	34700	14	–	–	–	–	–	–
Cc1[nH]c(C)c(-c2ccc(C(=O)c3ccc(Cl)cc3)cc2)c(=O)c1Cl [TCMDC-137413]	–	122.85	129.69	–	171	–	–	100000	117	1 (key: 1: YES; 0: NO)	170	100.00	–	–	–
Cc1[nH]c(C)c(-c2ccc(S(=O)(=O)c3ccc(Cl)cc3)cc2)c(=O)c1Br [TCMDC-137414]	–	109.11	112.52	–	112	–	–	100000	66	1 (key: 1: YES; 0: NO)	110	100.00	–	–	–
Cc1cc(=O)c(-c2cccc(Oc3ccc(Cl)cc3)c2)c(C)[nH]1 [TCMDC-137415]	1 (1: YES)	51.13	85.04	710	706	35.48	35.48	35500	396	–	–	–	–	–	–
Cc1[nH]c(C)c(-c2ccc(-c3ccc(Cl)cc3)cc2)c(=O)c1Cl [TCMDC-137416]	–	59.25	97.22	–	2430	–	–	57500	378	1 (key: 1: YES; 0: NO)	2430	57.54	–	–	–
Cc1[nH]c(C)c(C2CCC(c3ccc(Cl)cc3)CC2)c(=O)c1Cl (stereo not drawn) [TCMDC-137423]	1 (1: YES)	93.67	102.07	75.5	75	–	–	2240	44	–	–	–	2.24	–	–
Cc1nc(C)c(-c2ccc(Cl)cc2)c(O)c1I [TCMDC-137424]	–	40.29	60.84	–	1840	–	–	100000	239	1 (key: 1: YES; 0: NO)	1840	100.00	–	–	–
CCCCCCCc1c(C)[nH]c2ccccc2c1=O [TCMDC-137425]	–	71.66	86.67	–	388	–	–	100000	222	1 (key: 1: YES; 0: NO)	390	100.00	–	–	–
COc1ccc2c(=O)c(Br)c(C)[nH]c2c1 [TCMDC-137426]	–	81.77	82.46	–	483	–	–	100000	842	1 (key: 1: YES; 0: NO)	480	100.00	–	–	–
Cc1[nH]c2ccccc2c(=O)c1Br [TCMDC-137427]	–	55.99	67.98	–	1600	–	–	100000	3390	1 (key: 1: YES; 0: NO)	–	100.00	–	–	–
Cc1[nH]c(C)c(-c2ccc(C(F)(F)F)cc2)c(=O)c1Br [TCMDC-137429]	–	133.13	107.96	–	648	–	–	100000	369	1 (key: 1: YES; 0: NO)	650	100.00	–	–	–
CCCCCCCCc1c(C)[nH]c(C)c(C#N)c1=O [TCMDC-137431]	1 (1: YES)	93.99	59.83	–	460	–	–	34700	794	–	–	–	34.67	–	–
CCCCC1=CC2C(=O)C(C(=O)OC)=CN=C2C=C1OCc1ccccc1 (stereo not drawn) [TCMDC-137492]	1 (1: YES)	85.39	106.84	3020	3020	–	–	100000	140	–	–	–	100.00	–	–
CCCCOc1cc2ncc(C(=O)OCC)c(O)c2cc1OCCCC [TCMDC-137523]	1 (1: YES)	74.60	95.02	2190	2190	–	–	100000	63	–	–	–	100.00	–	–
Cc1cc(O)c(-c2ccc(Oc3ccc(F)cc3)cc2)c(C)n1 [TCMDC-137535]	0 (0: NO)	57.60	38.98	580	583	0.28	0.28	280	1030	–	–	–	–	–	–
Cc1cc(=O)c(-c2ccc(Oc3cccc(C(F)(F)F)c3)cc2)c(C)[nH]1 [TCMDC-137536]	–	–	–	–	2650	–	–	100000	3230	1 (key: 1: YES; 0: NO)	2650	100.00	–	91.76	80.63
CCCCCCCCc1c(C)[nH]c(C)c(Cl)c1=O [TCMDC-137538]	1 (1: YES)	94.00	90.22	130	131	–	–	4790	102	–	–	–	4.79	–	–
CCN1CCN(CCNc2c3ccccc3nc3ccccc23)CC1.Cl [TCMDC-137545]	0 (0: NO)	68.50	47.85	1780	1780	11.75	11.75	11800	606	–	–	–	–	–	–
CCN1CCN(CCCNc2c3ccccc3nc3ccccc23)CC1.Cl [TCMDC-137546]	0 (0: NO)	55.87	53.70	3050	3040	9.12	9.12	9120	616	–	–	–	–	–	–
CC(C)N1CCN(CCCNc2c3ccccc3nc3ccccc23)CC1.Cl [TCMDC-137547]	0 (0: NO)	29.07	62.42	3710	3710	14.45	14.45	14400	518	–	–	–	–	–	–
CCCN1CCN(CCNc2c3ccccc3nc3ccccc23)CC1 [TCMDC-137549]	0 (0: NO)	61.15	52.76	2010	2010	7.41	7.41	7410	965	–	–	–	–	–	–
